This note sets out measurements from US20120220581A1, “IMIDAZO[1,2-b]PYRIDAZINE DERIVATIVES AND THEIR USE AS PDE10 INHIBITORS” (Janssen-Cilag, S.A., priority 2009, published 2012).

The target of test [1] is other members of the PDE family (Homo sapiens, UniProt Q9HCR9). In words: In vitro PDE selectivity assay (SPA), other members of the PDE family (protocols in Table A). The class given is biochemical. Particulars: hPDE11A4; read-out: PDE 11A4 (expressed as pIC50) (converted). In outline:
(§1)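 Inhibition of each PDE isoform was measured by scintillation proximity assay with ³H-cyclic nucleotide substrate, using incubation buffer, substrate concentration, incubation time and stop solution adapted per isoform. Compounds were tested in dose-response against 1% DMSO controls and enzyme-free blanks. IC50 came from a least-squares fit of blank-subtracted % of control versus concentration.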

Test [2] concerns the target other members of the PDE family (Homo sapiens, UniProt O00408). The description is as above. The class given is biochemical. The settings on record: hPDE2A; read-out: PDE 2A (expressed as pIC50) (converted). In outline: as §1
Test [3] deals with other members of the PDE family (Homo sapiens, UniProt Q14432). Described as above. The settings on record: hPDE3A; read-out: PDE 3A (expressed as pIC50) (converted). The class given is biochemical. In outline: as §1
For test [4], the target named is other members of the PDE family (Homo sapiens, UniProt Q13946). Described as above. The class given is biochemical. The settings on record: hPDE7A1; read-out: PDE 7A (expressed as pIC50) (converted). In outline: as §1
The target of test [5] is other members of the PDE family (Homo sapiens, UniProt O76083). The description is as above. It is filed as biochemical. The settings on record: hPDE9A; read-out: PDE 9A (expressed as pIC50) (converted). In outline:
as §1

Test [6] relates to conditioned avoidance response in rats. In words: Conditioned avoidance response (CAR) test. It is filed as in vivo. Particulars: Rattus norvegicus. An excerpt:
The apparatus consisted of an inner box surrounded by an outer box. The inner box was composed of four walls of transparent, synthetic material (length×width×height: 30×30×30 cm), an open top, and a grid floor made of 15 pairs of iron bars (2 mm diameter; 6 mm inter-bar distance). Odd and even bars were connected with a source of alternative current (1.0 mA; Coulbourn Instruments Solid State Shocker/Distributor), which could be interrupted by a switch. The outer box was composed of the same material (length×width×height: 40×40×36 cm), also with an open top, with a distance of 5 cm between the inner and outer box on all sides. To decrease the amount of environmental stimuli, three walls of the outer box were made non-transparent. The front wall was left transparent to allow the necessary inspection of the animal during the test. The upper edge of the outer and inner box served as a target for the rats on which to jump with fore- and hind-paws, respectively.
From their arrival in the laboratory on the experimental day, male Wiga Wistar rats (230±30 g) were housed in individual cages provided with bedding material.
The rats were tested 3 times, i.e. at 60, 90 and 120 min after the injection of test compound or solvent. Latency to avoidance was recorded. The median avoidance response obtained over the three experimental sessions for each rat were used for further calculations.

The subject of test [7] is SCH-23390-induced hypolocomotion in mice. The test is described as follows: SCH-23390-induced hypolocomotion in mice. The class given is in vivo. Particulars: Mus musculus. As for the experimental part:
SCH-23390 (0.08 mg/kg, i.v.)-induced hypolocomotion was evaluated over a 30-min period starting immediately after the SCH-23390 challenge in male NMRI mice pretreated 0.5 h earlier with test compound or solvent. Averaged activity in solvent-treated control mice was 1540±559 counts (mean±SD; n=103). Criterion for drug-induced reversal of the SCH-23390-induced hypolocomotion: total distance: >2500 counts (2.9% false positives in controls).

SMILES strings stand for the structures.

Chain of other members of the PDE family (Homo sapiens, UniProt Q14432) (Q14432 whole entry): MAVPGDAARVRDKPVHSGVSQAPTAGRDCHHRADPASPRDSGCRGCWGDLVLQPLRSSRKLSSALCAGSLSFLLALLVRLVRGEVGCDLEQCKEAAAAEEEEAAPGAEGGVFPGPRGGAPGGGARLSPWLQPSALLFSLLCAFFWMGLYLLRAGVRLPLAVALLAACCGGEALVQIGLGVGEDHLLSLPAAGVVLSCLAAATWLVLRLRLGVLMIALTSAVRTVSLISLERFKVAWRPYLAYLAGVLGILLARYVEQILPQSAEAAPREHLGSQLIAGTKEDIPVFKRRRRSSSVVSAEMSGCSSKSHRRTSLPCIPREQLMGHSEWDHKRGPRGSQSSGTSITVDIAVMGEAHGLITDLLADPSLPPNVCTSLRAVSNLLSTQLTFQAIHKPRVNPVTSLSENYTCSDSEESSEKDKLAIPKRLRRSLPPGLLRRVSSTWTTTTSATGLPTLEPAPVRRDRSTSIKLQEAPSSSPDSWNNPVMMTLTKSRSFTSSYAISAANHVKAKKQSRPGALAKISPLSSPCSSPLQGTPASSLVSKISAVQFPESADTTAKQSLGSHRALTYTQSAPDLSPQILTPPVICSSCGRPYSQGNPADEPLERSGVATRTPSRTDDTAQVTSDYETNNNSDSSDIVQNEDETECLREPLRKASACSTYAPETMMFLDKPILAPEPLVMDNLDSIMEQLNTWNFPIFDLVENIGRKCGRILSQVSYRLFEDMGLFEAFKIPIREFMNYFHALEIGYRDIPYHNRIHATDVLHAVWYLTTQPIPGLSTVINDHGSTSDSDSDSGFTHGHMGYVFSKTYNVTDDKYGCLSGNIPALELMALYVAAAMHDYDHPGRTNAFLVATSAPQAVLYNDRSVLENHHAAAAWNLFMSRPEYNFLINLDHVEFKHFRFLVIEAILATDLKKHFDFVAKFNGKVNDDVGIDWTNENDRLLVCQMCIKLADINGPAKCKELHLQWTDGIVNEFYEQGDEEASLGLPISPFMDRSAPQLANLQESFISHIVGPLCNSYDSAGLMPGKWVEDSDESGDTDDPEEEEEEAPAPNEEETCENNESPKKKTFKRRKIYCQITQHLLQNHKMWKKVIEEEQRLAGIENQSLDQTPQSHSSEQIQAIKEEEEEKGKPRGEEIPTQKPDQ
Chain of other members of the PDE family (Homo sapiens, UniProt O76083) (O76083 whole entry): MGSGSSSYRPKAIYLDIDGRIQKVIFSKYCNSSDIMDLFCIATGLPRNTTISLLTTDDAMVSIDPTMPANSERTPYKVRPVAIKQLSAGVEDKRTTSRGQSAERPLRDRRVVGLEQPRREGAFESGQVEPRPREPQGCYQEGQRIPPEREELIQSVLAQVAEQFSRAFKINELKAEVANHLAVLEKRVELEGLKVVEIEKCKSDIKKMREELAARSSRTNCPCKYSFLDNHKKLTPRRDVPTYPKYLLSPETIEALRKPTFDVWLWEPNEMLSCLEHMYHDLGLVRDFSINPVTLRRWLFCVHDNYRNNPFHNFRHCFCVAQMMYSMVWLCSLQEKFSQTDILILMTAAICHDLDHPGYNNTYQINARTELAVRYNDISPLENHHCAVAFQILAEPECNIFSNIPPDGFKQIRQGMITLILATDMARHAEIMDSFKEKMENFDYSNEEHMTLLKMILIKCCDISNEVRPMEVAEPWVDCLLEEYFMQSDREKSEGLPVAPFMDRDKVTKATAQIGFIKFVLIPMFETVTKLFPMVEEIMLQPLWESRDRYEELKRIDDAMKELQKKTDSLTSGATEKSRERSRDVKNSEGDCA
Chain of other members of the PDE family (Homo sapiens, UniProt Q13946) (Q13946 whole entry): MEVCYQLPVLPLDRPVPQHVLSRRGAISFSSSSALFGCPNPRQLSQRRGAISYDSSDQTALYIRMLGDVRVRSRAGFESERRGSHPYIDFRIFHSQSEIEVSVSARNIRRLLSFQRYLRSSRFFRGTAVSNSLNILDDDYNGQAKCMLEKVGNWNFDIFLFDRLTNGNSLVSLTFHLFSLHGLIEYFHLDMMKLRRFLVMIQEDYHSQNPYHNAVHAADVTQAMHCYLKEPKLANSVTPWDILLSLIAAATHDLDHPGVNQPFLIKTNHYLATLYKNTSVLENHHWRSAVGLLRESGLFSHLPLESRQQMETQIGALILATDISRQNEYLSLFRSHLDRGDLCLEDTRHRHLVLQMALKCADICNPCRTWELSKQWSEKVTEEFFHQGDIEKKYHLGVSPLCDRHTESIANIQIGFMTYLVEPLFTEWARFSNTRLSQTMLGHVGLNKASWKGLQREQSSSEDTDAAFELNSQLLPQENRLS
Chain of other members of the PDE family (Homo sapiens, UniProt O00408) (O00408 whole entry): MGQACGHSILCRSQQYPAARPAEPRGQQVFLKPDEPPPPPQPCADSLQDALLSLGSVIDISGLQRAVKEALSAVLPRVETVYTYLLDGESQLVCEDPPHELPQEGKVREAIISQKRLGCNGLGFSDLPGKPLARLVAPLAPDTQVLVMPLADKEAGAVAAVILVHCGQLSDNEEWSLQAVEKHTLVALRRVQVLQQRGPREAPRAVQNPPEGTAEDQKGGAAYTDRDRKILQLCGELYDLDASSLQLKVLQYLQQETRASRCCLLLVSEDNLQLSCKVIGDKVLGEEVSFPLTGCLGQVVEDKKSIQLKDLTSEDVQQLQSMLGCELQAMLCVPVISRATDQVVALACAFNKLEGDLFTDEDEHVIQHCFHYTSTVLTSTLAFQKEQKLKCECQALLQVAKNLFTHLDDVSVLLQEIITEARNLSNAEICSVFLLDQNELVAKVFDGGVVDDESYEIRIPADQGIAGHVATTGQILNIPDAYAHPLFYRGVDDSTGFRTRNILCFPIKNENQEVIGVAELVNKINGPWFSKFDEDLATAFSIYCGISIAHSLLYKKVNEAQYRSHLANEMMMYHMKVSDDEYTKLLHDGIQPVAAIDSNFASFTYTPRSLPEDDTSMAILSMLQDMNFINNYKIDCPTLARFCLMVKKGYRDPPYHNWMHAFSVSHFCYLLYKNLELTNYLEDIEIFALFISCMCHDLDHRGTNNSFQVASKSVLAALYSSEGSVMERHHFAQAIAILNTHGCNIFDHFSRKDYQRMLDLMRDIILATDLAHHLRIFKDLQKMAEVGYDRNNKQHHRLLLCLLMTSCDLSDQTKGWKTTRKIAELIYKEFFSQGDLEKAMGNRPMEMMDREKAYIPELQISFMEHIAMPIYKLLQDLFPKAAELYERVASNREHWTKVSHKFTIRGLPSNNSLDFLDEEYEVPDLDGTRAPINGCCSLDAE
Chain of other members of the PDE family (Homo sapiens, UniProt Q9HCR9) (Q9HCR9 whole entry, canonical isoform): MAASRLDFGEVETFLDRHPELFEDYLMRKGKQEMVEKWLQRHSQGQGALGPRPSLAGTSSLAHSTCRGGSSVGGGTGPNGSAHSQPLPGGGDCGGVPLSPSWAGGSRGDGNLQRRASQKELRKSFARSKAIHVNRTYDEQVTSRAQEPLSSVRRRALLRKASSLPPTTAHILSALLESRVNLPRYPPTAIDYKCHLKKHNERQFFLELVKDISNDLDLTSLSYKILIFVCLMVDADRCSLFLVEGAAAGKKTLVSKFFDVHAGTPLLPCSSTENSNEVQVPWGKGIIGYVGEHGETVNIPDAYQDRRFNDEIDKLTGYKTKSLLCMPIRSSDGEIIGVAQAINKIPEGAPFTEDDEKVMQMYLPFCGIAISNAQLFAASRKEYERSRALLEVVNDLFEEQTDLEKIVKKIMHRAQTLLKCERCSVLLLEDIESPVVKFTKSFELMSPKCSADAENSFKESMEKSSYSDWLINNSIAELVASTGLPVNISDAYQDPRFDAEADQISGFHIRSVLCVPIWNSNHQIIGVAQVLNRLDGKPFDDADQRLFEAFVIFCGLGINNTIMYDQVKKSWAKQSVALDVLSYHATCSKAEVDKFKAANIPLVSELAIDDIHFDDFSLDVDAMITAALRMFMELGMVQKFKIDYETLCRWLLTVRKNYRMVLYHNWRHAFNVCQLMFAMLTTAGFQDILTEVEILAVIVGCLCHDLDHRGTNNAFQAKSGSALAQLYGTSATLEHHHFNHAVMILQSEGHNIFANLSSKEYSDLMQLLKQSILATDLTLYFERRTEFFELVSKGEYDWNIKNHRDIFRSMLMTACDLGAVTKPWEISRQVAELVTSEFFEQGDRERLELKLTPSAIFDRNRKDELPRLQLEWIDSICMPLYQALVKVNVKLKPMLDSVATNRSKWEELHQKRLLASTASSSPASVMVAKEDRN

Consider `COCCc1ccc(-c2c(C)nc3c(N4CCOCC4)ccnn23)cn1` [compound 1, 3-[6-(2-methoxyethyl)-3-pyridinyl]-2-methyl-8-(4-morpholinyl)-imidazo[1,2-b]pyridazine], for which the IC50 is 74.1 µM in test [1]; 39.8 µM in test [2]; 97.7 µM in test [3]; 69.2 µM in test [4]; above 100 µM in test [5]. Further, the median effective dose (ED50) is 4.7 mg/kg in test [6] and 7.1 mg/kg in test [7].

For `COCCOc1ccc(-c2c(C)nc3c(-c4ccncc4)ccnn23)cn1` [compound 21, 3-[6-(2-methoxyethoxy)-3-pyridinyl]-2-methyl-8-(4-pyridinyl)-imidazo[1,2-b]pyridazine], the IC50 in test [1] was above 50.1 µM; in test [2], 47.9 µM; in test [3] it was above 50.1 µM; in test [4], above 50.1 µM; in test [5], above 50.1 µM. Further, the figures for the 50% effective dose (ED50) in test [6] and in test [7] were 5.4 mg/kg and 5 mg/kg, respectively.

Usually ED50 stands for the midpoint of the dose-response relation. High values mean a need for a large dose, low ones an effect at a small dose.
